The text below walks through data of PubChem BioAssay (NCI).

Some test systems named below: RXF 393 renal; LOX IMVI melanoma; MALME-3M melanoma; SK-OV-3 ovarian; CCRF-CEM leukemia; OVCAR-3 ovarian; 786-0 renal; SF-295 CNS; A498 renal; KM12 colon.
Test in all cases: DTP human tumour cell line panel, 48 h

Where “and” joins values, the source holds several entries; their conditions need not be identical. Identical values can stand only once.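 Step 1: Grow cells in 96-well plates. Step 2: Expose to compound for 48 hours at 5 concentrations. Step 3: Interpolate endpoints linearly; if unreached, use highest concentration. At the GI50, growth is halved. The concentration for full growth arrest is given as TGI.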

A word on the TGI: it is the concentration at which net growth stops. Low values mean greater sensitivity of the cells, high ones lower sensitivity of the cells. Turning to `NC(=S)NN/C=C(\C=Nc1ccccc1)[N+](=O)[O-]`, the TGI in the assay with RXF 393 renal, in the assay with LOX IMVI melanoma, in the assay on MALME-3M melanoma, with SK-OV-3 ovarian, with CCRF-CEM leukemia and with OVCAR-3 ovarian was > 100 µM throughout. The total growth inhibition concentration (TGI) in the assay on 786-0 renal and with SF-295 CNS was > 100 µM each time.

The GI50 is the concentration giving 50% growth inhibition. In the case of `CCCCCCCCCCCCCCCC[N+]1(C)CCOCC1`, the GI50 with A498 renal was 3.38 µM; in the assay on MALME-3M melanoma, 2.38 µM; in the assay with SK-OV-3 ovarian it was 2.2 µM; with CCRF-CEM leukemia, 1.09 µM; in the assay with OVCAR-3 ovarian, 1.56 µM; in the assay on 786-0 renal, 1.52 µM. For the same molecule, in the assay on SF-295 CNS, the GI50 is 1.8 µM. In addition, the concentration for total growth inhibition (TGI) came out at 21.5 µM with A498 renal; 6.71 µM with MALME-3M melanoma; 7.36 µM in the assay on SK-OV-3 ovarian; 3.02 µM in the assay on CCRF-CEM leukemia; 3.61 µM in the assay on OVCAR-3 ovarian; 2.99 µM in the assay with 786-0 renal. For the same molecule, in the assay with SF-295 CNS, the TGI is 6.29 µM.

For `N/N=C1\C(=O)N(CCc2ccccc2)C(=O)C1C(=O)NCCc1ccccc1` (stereo unspecified), the total growth inhibition concentration (TGI) in the assay on LOX IMVI melanoma, in the assay on MALME-3M melanoma, in the assay with SK-OV-3 ovarian, in the assay on KM12 colon, in the assay on CCRF-CEM leukemia and in the assay on OVCAR-3 ovarian was > 100 µM each time. The TGI in the assay on 786-0 renal and in the assay with SF-295 CNS was > 100 µM each time.

With `C/C(=N\NC(=O)CC#N)c1c(O)cc(C)oc1=O`, the TGI in the assay with LOX IMVI melanoma, in the assay with A498 renal, with MALME-3M melanoma, in the assay on SK-OV-3 ovarian, in the assay with KM12 colon and with CCRF-CEM leukemia was > 100 µM each time. The TGI with 786-0 renal and in the assay with SF-295 CNS was > 100 µM in each case.

As to `O=C(/C=C/c1ccccc1)CC(=O)CCC(=O)Nc1ccc(Cl)cc1`, the TGI in the assay on LOX IMVI melanoma, in the assay on A498 renal, in the assay on MALME-3M melanoma, with SK-OV-3 ovarian, with KM12 colon and in the assay with CCRF-CEM leukemia was > 100 µM throughout. Also, the TGI in the assay on OVCAR-3 ovarian, with 786-0 renal and in the assay on SF-295 CNS was > 100 µM each time.

For `Cc1c(C(=O)O)oc2ccc([N+](=O)[O-])cc12`, the TGI with LOX IMVI melanoma, in the assay on A498 renal, with MALME-3M melanoma, in the assay on SK-OV-3 ovarian, in the assay on KM12 colon and in the assay on CCRF-CEM leukemia was > 100 µM throughout. Also, the TGI with OVCAR-3 ovarian, in the assay on 786-0 renal and with SF-295 CNS was > 100 µM each time.

As for `COc1ccc(/C(=N\NC(=S)NN)C(c2ccc(OC)cc2)C2C(=O)Oc3ccccc32)cc1` (stereo unspecified), the GI50 in the assay on RXF 393 renal, in the assay on MALME-3M melanoma, with SK-OV-3 ovarian, with KM12 colon, in the assay on OVCAR-3 ovarian and in the assay with 786-0 renal was > 100 µM in each case. In the assay on SF-295 CNS, the GI50 is > 100 µM. In addition, the TGI in the assay on RXF 393 renal, with MALME-3M melanoma, with SK-OV-3 ovarian, in the assay with KM12 colon, with CCRF-CEM leukemia and in the assay on OVCAR-3 ovarian was > 100 µM in each case. Further, the TGI in the assay on 786-0 renal and in the assay with SF-295 CNS was > 100 µM each time.

For `Oc1ccccc1-c1nn(CNc2ccccc2Cl)c(=S)o1`, the GI50 in the assay with RXF 393 renal was > 100 µM; in the assay with LOX IMVI melanoma, 18.9 µM; with A498 renal, > 100 µM; in the assay with SK-OV-3 ovarian it was > 100 µM; in the assay with KM12 colon, > 100 µM; in the assay with CCRF-CEM leukemia, 20.1 µM. Moreover, the results for the GI50 with OVCAR-3 ovarian, with 786-0 renal and in the assay with SF-295 CNS were 89.7 µM, > 100 µM and 65.2 µM, respectively. The concentration for total growth inhibition (TGI) with RXF 393 renal is > 100 µM; with LOX IMVI melanoma, 35.2 µM; in the assay on A498 renal it was > 100 µM; in the assay on SK-OV-3 ovarian it was > 100 µM; with KM12 colon, > 100 µM; in the assay on CCRF-CEM leukemia, 55.4 µM. Moreover, the TGI in the assay with OVCAR-3 ovarian, with 786-0 renal and in the assay on SF-295 CNS was > 100 µM each time.

As to `CCC1=CC2CN(C1)Cc1c([nH]c3ccccc13)[C@@](C(=O)OC)(c1cc3c(cc1OC)N(C)[C@H]1[C@@](O)(C(=O)OC)[C@H](OC(C)=O)[C@]4(CC)C=CCN5CC[C@]31[C@@H]54)C2` (stereo partly specified), the concentration for 50% growth inhibition (GI50) was < 0.005 µM in the assay with LOX IMVI melanoma; 0.014 µM and 0.0173 µM in the assay on A498 renal; < 0.005 µM in the assay on MALME-3M melanoma; 0.00879 µM in the assay on CCRF-CEM leukemia; < 0.005 µM with OVCAR-3 ovarian; 0.0514 µM and 0.0773 µM with 786-0 renal. Moreover, the GI50 with SF-295 CNS is 0.0151 µM and 0.0231 µM. The TGI in the assay on LOX IMVI melanoma was 50 µM and > 100 µM; with A498 renal, 0.326 µM and 0.151 µM; with MALME-3M melanoma it was 8.68 µM; in the assay with SK-OV-3 ovarian, 11.8 µM; with KM12 colon it was 0.372 µM; in the assay on CCRF-CEM leukemia, 20.2 µM. Also, the TGI is 0.00611 µM and 0.0135 µM with OVCAR-3 ovarian; 16.7 µM and > 100 µM in the assay with 786-0 renal; 50 µM and > 100 µM in the assay on SF-295 CNS.

On to `O=C1CCCCN1CCCCC#Cc1cccc(C#Cc2cccnc2)c1`, for which the GI50 with LOX IMVI melanoma was 8.55 µM; with A498 renal it was 42.8 µM; in the assay with MALME-3M melanoma, 21.7 µM; in the assay with SK-OV-3 ovarian it was 16.4 µM; in the assay on KM12 colon it was 20.4 µM; with CCRF-CEM leukemia it was 30.9 µM. Further, the GI50 in the assay on OVCAR-3 ovarian was 22.6 µM; in the assay on 786-0 renal, 13 µM; in the assay on SF-295 CNS, 18.1 µM. For the same molecule, the TGI in the assay with LOX IMVI melanoma is 25.9 µM; in the assay on A498 renal it was > 100 µM; with MALME-3M melanoma, 79.1 µM; in the assay with SK-OV-3 ovarian it was 32.2 µM; in the assay on KM12 colon, > 100 µM; in the assay with CCRF-CEM leukemia, > 100 µM. Also, the TGI in the assay on OVCAR-3 ovarian worked out at 71.4 µM; with 786-0 renal, 27.8 µM; with SF-295 CNS, 84 µM.

For `C[N+](C)(C)CC1CCCCC1O` (stereo unspecified), the TGI in the assay with RXF 393 renal, in the assay on LOX IMVI melanoma, in the assay with A498 renal, in the assay with SK-OV-3 ovarian, in the assay with CCRF-CEM leukemia and in the assay on OVCAR-3 ovarian was > 100 µM throughout. The TGI in the assay with 786-0 renal and in the assay with SF-295 CNS was > 100 µM throughout.
